Measured values from patent publication US20260000652A1, “IMPEDING PLATINUM-BASED CHEMOTHERAPEUTIC INDUCED OTOTOXICITY USING A COLONY STIMULATING FACTOR 1 RECEPTOR INHIBITOR” (THE UNITED STATES OF AMERICA, AS REPRESENTED BY THE …, priority 2022, published 2026).
“Also recorded” adds a separate entry of the source.

Columns and labels:
[1] = tested on: cochlear macrophages; assay: Cochlear macrophage ablation, DAPI and CX3CR1-GFP staining of cochlear sections; format: in vivo, mouse; settings: for ablation of cochlear macrophages: DAPI and CX3CR1-GFP staining of cochlea, saline- and cisplatin-treated mice, vs no pexidartinib
Text: The CSF1R inhibitor can inhibit, directly and/or indirectly, macrophages, or microglia, or both. Inhibition and/or killing of macrophages and/or microglia can be referred to as “ablation.” The macrophages can comprise cochlear resident macrophages, or recruited macrophages, or both. Fractalkine receptor CX3CR1 is a regulator of macrophage function and can be utilized to label macrophages. The resident macrophages can comprise perivascular resident macrophage-like melanocytes (PVM/Ms). PVM/Ms can regulate the integrity of the blood labyrinth barrier (BLB), a barrier between the vasculature and the inner ear fluids (endolymph or perilymph). The BLB can control exchanges between the blood and fluids from intrastitial space in cochlea. The BLB can maintain the inner ear fluid ionic homeostasis. The BLB can restrict entry of most blood-borne (toxic) substances into inner ear tissues. The BLB can selectively pass ions, fluids, and nutrients into cochlea. The CSF1R inhibitor can affect, directly and/or indirectly, the blood labyrinth barrier (BLB) and one or more of its functions.
(§1) A clinically relevant mouse model of cisplatin-induced ototoxicity was developed and used to examine whether macrophages play a role in hearing loss in response to cisplatin. Pexidartinib is an inhibitor of the colony stimulating factor 1 receptor (CSF1R), which aids in the survival of microglia and cochlear resident macrophages.

[2] = tested on: cisplatin-induced hearing loss; assay: Hearing sensitivity by auditory brainstem responses (ABR) in cisplatin-treated mice; format: in vivo, mouse; settings: cisplatin plus pexidartinib vs cisplatin only, after end of third cycle
[3] = tested on: outer hair cells; assay: Outer hair cell survival, Myosin 7a staining and quantification of cochlear hair cells; format: in vivo, mouse; settings: cisplatin mice co-treated with PLX3397, Myosin 7a staining, 16, 22.4, 32, 40 kHz regions
Description: Hearing sensitivity was assessed prior to pexidartinib/cisplatin administration and after the end of the third cycle of the treatment protocol using auditory brainstem responses (ABR) and distortion product otoacoustic emissions (DPOAE). […] Histology can be performed using MyosinVIla (turquoise).
The data are supportive of macrophage ablation being protective against cisplatin-induced hearing loss. […] Data and other information relevant to the experimental examples are depicted in the various figures of the drawings and summarized herein.

[4] = Cisplatin-induced weight loss in mouse model of cisplatin ototoxicity; format: in vivo; settings: cisplatin-treated mice with macrophage ablation
Text: as §1

[5] = Mass spectrometry measurement of platinum content in microdissected inner ear tissues; format: in vivo, mouse; settings: spiral ganglion neurons, organ of Corti, stria vascularis, utricle, saccule
[6] = tested on: outer hair cell function; assay: Distortion product otoacoustic emissions (DPOAE) in cisplatin-treated mice; format: in vivo, mouse; settings: cisplatin plus pexidartinib vs cisplatin only; 16, 22, 32, 40 kHz

SMILES	number of macrophages in the cochlea ([1]; cisplatin vs control, whole cochlear section)	cisplatin-induced hearing loss (ABR threshold shifts) [2]	cisplatin-induced hearing loss (ABR threshold shifts) ([2]; listed as PLX3397)	OHC survival [3]	OHC survival ([3]; listed as PLX3397)	cisplatin-induced weight loss [4]	cisplatin entry into the inner ear (platinum content) [5]	ablation of cochlear macrophages [1]	ablation of cochlear macrophages ([1]; listed as PL3397)	OHC function (DPOAE amplitudes) [6]
N.N.[Cl][Pt][Cl] [cisplatin]	reduced number of macrophages in the cochlea	–	–	–	–	–	–	–	–	–
FC(F)(F)c1ccc(CNc2ccc(Cc3c[nH]c4ncc(Cl)cc34)cn2)cn1 [pexidartinib]	–	significantly reduced hearing loss	significantly reducing cisplatin-induced hearing loss	increased OHC survival; also recorded: protection of outer hair cells against cisplatin-induced hair cell loss	greater OHC survival	significantly reduced cisplatin-induced weight loss	reduces cisplatin entry into the inner ear; also recorded: reduced cisplatin entry to the inner ear	ablate macrophages; also recorded: effectively ablates cochlear macrophages; also recorded: ablation of macrophages	effectively ablates cochlear macrophages	protected from the loss of OHC function; also recorded: higher DPOAE amplitudes
